# PMC10508830 (Antiviral research, 2023)
# Target: NA of clade 2.3.4.4b A(H5N1) viruses lacking the flagged NA substitutions (n = 15) (Influenza A virus, UniProt Q9Q0U7)
# Format: biochemical
# Conditions: read-out: Median IC50 A(H5N1)
# Sequence of NA of clade 2.3.4.4b A(H5N1) viruses lacking the flagged NA substitutions (n = 15) (Q9Q0U7 whole entry, looked up): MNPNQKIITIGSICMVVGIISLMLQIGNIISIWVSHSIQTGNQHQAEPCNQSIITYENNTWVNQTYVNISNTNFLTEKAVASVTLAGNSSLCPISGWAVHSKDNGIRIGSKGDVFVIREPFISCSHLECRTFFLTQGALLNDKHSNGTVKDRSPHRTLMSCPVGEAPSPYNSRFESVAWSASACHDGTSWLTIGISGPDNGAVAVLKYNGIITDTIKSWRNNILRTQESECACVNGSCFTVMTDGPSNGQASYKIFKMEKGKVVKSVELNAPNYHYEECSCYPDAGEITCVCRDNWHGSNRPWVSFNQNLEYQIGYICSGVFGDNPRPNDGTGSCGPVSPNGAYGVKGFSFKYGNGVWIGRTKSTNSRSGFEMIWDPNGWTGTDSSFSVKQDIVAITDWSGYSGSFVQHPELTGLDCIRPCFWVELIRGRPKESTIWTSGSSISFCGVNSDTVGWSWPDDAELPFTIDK
substance,measurement,value
peramivir,IC50,0.1 nM
